Literature values, collected in patent publication US12575570B2, “Aqueous composition of Epyrifenacil, Mesotrione and Pyroxasulfone” (Valent U.S.A. LLC, priority 2020, dated 2026).

In the case of `CS(=O)(=O)c1ccc(C(=O)C2C(=O)CCCC2=O)c([N+](=O)[O-])c1` [mesotrione, 2-(4-mesyl-2-nitrobenzoyl)cyclohexane-1,3-dione], the water solubility is given as 160 ppm.
